Measurements: the METLIN SMRT retention time set (Domingo-Almenara et al. 2019)

Assay: gradient 5% acetonitrile 3 min, to 50% in 2 min, to 85% in 15 min, held 3 min, 100 µL/min
Conditions: column: Zorbax Extend-C18 2.1 x 50 mm; eluents: water / acetonitrile, 0.1% formic acid
Method in brief: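 The system's dead and dwell volumes were 40 μL and 900 μL, with a Zorbax Extend-C18 column (2.1 × 50 mm, 1.8 μm) run at 100 μL/min in water and acetonitrile containing 0.1% formic acid each. Pure standards were analyzed in mixtures of ~100 molecules by HPLC–quadrupole time-of-flight mass spectrometry in positive and negative ionization mode. Retention time was assigned from computationally picked, manually inspected adduct peaks.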

RP-LC retention time [s]	Structure (SMILES)
865	O=C(NCCc1ccccc1)C1c2ccccc2C(=O)N1Cc1ccc2c(c1)OCO2 (configuration not stated)
674	COC(=O)c1cnc2nc(C)ccc2c1Nc1ccc(F)cc1F
610	NC(=O)C1CCN(C(=O)CN2CCc3ccccc32)CC1
922	CCOc1ccc(N2CC(c3nc(-c4cccc(OC)c4OC)no3)CC2=O)cc1 (configuration not stated)
601	COc1ccc(NC(=O)c2cn3c(n2)CCCC3)cc1F
706	CN(C)c1nc2ncn3c(=O)n(CC(=O)NCCc4ccc(Cl)cc4)nc3c2s1
843	Cc1ccc(NC(=O)C2CC(=O)N(CCc3c[nH]c4ccc(C)cc34)C2)cc1 (configuration not stated)
1000	COc1ccc(-c2noc(C3(NC(=O)c4ccco4)CCCCC3)n2)cc1
930	CCc1nc(-c2csc(S(=O)(=O)N3CCC(C(=O)Nc4ccc(OC)cc4)CC3)c2)no1
594	O=C1c2cccc(OCC(=O)N3CCCc4ccccc43)c2CCN1Cc1cccnc1
836	COc1ccc(-c2noc(C3CCCN3C(=O)c3ccc4c(c3)OCO4)n2)cc1OC (configuration not stated)
688	COc1cc(C(=O)NC2CCN(c3cc(-c4ccccc4)[nH]n3)C2)cc(OC)c1OC (configuration not stated)
837	Cc1nc(-c2ccc(-c3noc(CNC(=O)c4ccco4)n3)cc2)cs1
845	Cc1ccc(-c2nnc(Cc3nc(-c4cccnc4)no3)o2)cc1C
575	NC(=O)[C@@H]1C[C@@H](O)CN1C1CCN(C(=O)CC2=CCCCC2)CC1
546	O=C(NC1CC1)[C@@H]1C[C@H](Oc2cccnc2)CN1C(=O)c1ccoc1
573	O=C(NC1CCN(c2cc(-c3cccnc3)[nH]n2)CC1)C1CCCCC1
621	CCOC(=O)N1CCC(NC(=O)C2CCCN(c3cc(=O)n(C)c(=O)n3C)C2)CC1 (configuration not stated)
1100	Cc1ccccc1CNC(=O)c1cn(-c2ccc(-c3nc(C(C)(C)C)no3)cn2)cn1
630	O=C(NCc1ccc2c(c1)OCO2)c1ccc2ncnc(N3CCCC3)c2c1
862	Cc1ccc(C)c(CNC(=O)CN2CCN(Cc3ccc(F)cc3)C2=O)c1
779	COc1cc2c(cc1OC)C1C(C(=O)Nc3ccc4c(c3)OCO4)c3ccccc3C(=O)N1CC2 (configuration not stated)

RP-LC retention time [s]	Structure (SMILES)
656	CCOC(=O)N1CCN(c2ncc(C(=O)NCc3ccccc3)c(N)n2)CC1
1110	CC(C)OC(=O)COC(=O)c1cn(-c2cccc(F)c2)c(=O)c2ccccc12
957	Cc1cccc(-c2noc(-c3sccc3NC(=O)c3ccc4nc[nH]c4c3)n2)c1
647	Cc1sc2nc(SCc3ccc(C(=O)NCCO)cc3)[nH]c(=O)c2c1C
845	CCN1C(=O)c2ccccc2Oc2ccc(C(=O)NCCc3ccccc3)cc21
836	Cc1ccc(S(=O)(=O)N2C[C@@H](F)C[C@H]2C(=O)N2CCCCC2)cc1F
859	CCOc1cc([C@@H](CS(C)(=O)=O)N2C(=O)c3cccc(NC(C)=O)c3C2=O)ccc1OC
766	O=C(c1cnn2cccnc12)N1CCCC1c1ccc(Cl)cc1 (configuration not stated)
814	Cc1nnc2c(=O)n(CC(=O)N3CCC(Cc4ccccc4)CC3)c3cccnc3n12
1010	COC(=O)c1cc(S(=O)(=O)N2CCCC2C(=O)Nc2ccc(Br)c(C)c2)cn1C (configuration not stated)
621	Cc1cccc(CN2CC(N(C3CCOCC3)S(C)(=O)=O)C2)c1
1050	Cc1cc(C)c(S(=O)(=O)N2CCC(C(=O)NCc3csc(-c4cccs4)n3)CC2)cc1C
594	CCCN(C)c1nccnc1OC1CCN(Cc2cccnc2)C1 (configuration not stated)
550	O=C(C1CC1)N1CCC(N(Cc2cccnc2)C2CCOCC2)CC1
660	COCC(C)(O)CNC(=O)C(=O)NCCc1ccccc1 (configuration not stated)
640	c1cc(-c2noc(C3CCOCC3)n2)ccc1OC1CNC1
1320	Cc1cccc(-c2nc(Cn3nnc(-c4nc(-c5ccc(Cl)cc5)no4)c3C)c(C)o2)c1
916	O=C(COc1ccc(Br)cc1)Nc1ccnn1Cc1cccs1
1040	COc1ccc(NC(=O)c2cc(C)n3nc(C)cc3n2)c(C)c1
1230	Cc1sc(-c2cc(C(F)(F)F)on2)cc1S(=O)(=O)Nc1ccc(Br)cc1F
1220	O=C1COc2cc(Cl)ccc2N1Cc1nc(-c2ccc(OC(F)(F)F)cc2)no1
1080	Cc1cc(NC(=O)Cn2c(-c3ccc(F)cc3)ncc(C#N)c2=O)ccc1Br

RP-LC retention time [s]	Structure (SMILES)
977	Cc1ccc(-c2cc(C(=O)NC(C)C)n(C)c2)cc1
637	COc1ccc(C)cc1Nc1nc(C(=O)Nc2cccnc2)cs1
728	CCn1cnc(S(=O)(=O)N2CCC(C(=O)Nc3cc(OC)ccc3OC)CC2)c1
758	CCOC(=O)N1CCC(NS(=O)(=O)CCCOc2ccc(F)cc2)CC1
1100	O=C(C1CC1)N1CCN(c2nc(CN3CCCCCC3)cs2)CC1
564	CC1CCCCN1CCCNC(=O)CN1C(=O)CCn2nc(-c3cn(C)c4ccccc34)cc21 (configuration not stated)
761	CCc1nc2c(NC(=O)c3cccs3)cccn2n1
661	O=C(CSc1ccncc1)N1CCCn2nc(-c3ccc(Cl)cc3)cc2C1
709	CCOC(=O)c1[nH]c(C)c(CCC(=O)N2CCN(C(=O)c3ccco3)CC2)c1C
804	COc1ccc(Cl)cc1NC(=O)Cn1nc2c(N3CCCCCC3)nccn2c1=O
822	CC(C)NC(=O)c1ccc(OCC2CCN(C(=O)Cc3cccs3)CC2)cc1
560	CN1CCN(c2c(C(=O)c3ccccc3)cnc3cc4c(cc23)OCO4)CC1
1040	Cc1ccc(-c2nc(Cn3cccc3C(=O)NCc3cccs3)no2)cc1
772	COc1ccccc1NC(=O)Cn1c(C)nc2onc(C)c2c1=O
646	CC(=O)Nc1ccc2c(c1)CN(C(=O)c1ccccc1F)C(C(=O)N1CCCC1)C2 (configuration not stated)
930	Cc1ccc(NC(=O)Cc2csc3nc(-c4ccc(C)c(C)c4)cn23)c(C)c1
808	Cc1ccccc1NC(=O)NCCc1cn(CC(C)C)c2ncccc12
533	Cc1nc([C@@H]2CN(C(=O)c3cscn3)C[C@H]2C(N)=O)n[nH]1
575	Cc1cccc(CN2CCc3nc(C)n(CC(=O)Nc4ccc5c(c4)OCO5)c(=O)c3C2)c1
1320	Cc1oc(-c2cccc(Cl)c2)nc1Cn1nnc(-c2nc(-c3ccccc3)no2)c1C
1120	CCOc1ccc(-n2nnc(C(=O)Nc3cccc(Cl)c3C)c2C)cc1
572	CN1CCN(CCNC(=O)c2ccc3c(c2)N(C)C(=O)C2CCCCN32)CC1 (configuration not stated)

RP-LC retention time [s]	Structure (SMILES)
922	COc1ccccc1CNS(=O)(=O)c1ccc(-c2c(C)noc2C)cc1
674	CC(=O)c1cccc(NC(=O)N2C[C@H](c3nc(-c4ccncc4)no3)[C@@H](C)C2)c1
657	CCN1CCN(c2cc(C)c3cc(NC(=S)NCc4ccc(F)cc4Cl)ccc3n2)CC1
660	COc1ccc(-c2ncc3c(n2)CCN(C(=O)Nc2cc(C)ccc2C)C3)cc1
1150	Cc1nc(-c2cccnc2)sc1C(=O)/C=C/c1ccc(Cl)cc1Cl
825	Cc1ccc(Nc2c(-c3nc(C)no3)cnc3nc(C)ccc23)c(C)c1
790	CC(=O)Nc1ccc(-c2nc(-c3cccc(-c4ccn[nH]4)c3)no2)cc1
1260	CCCN1C(=O)COc2ccc(-c3noc(COc4ccc(Cl)cc4C)n3)cc21
576	O=C(c1ccc(F)cc1)N1c2nc(-c3ccccc3)nn2C2(CCCCC2)[C@@H]2CCCC[C@@H]21
920	Cc1nc2cc(-c3noc(-c4ccc5c(c4)OCO5)n3)ccc2n(C)c1=O
863	CCc1ccc(NC(=O)Cn2ncn3c(C)c(C(=O)NCc4ccccc4)c(C)c3c2=O)cc1
675	CC(=O)Nc1ccc(CC(=O)N2CCCC(c3nc(-c4ccc(NC(C)=O)cc4)no3)C2)cc1 (configuration not stated)
648	CC(C)c1ccc(CNC(=O)C2CCc3nc(N4CCCC4)ncc3C2)cc1 (configuration not stated)
631	O=C(c1cccc(Br)c1)N1CCN(C(=O)N2CCOCC2)CC1
754	Cc1ccc2ncn(C3CCN(C(=O)Nc4ccccc4C)CC3)c(=O)c2c1
1180	O=c1c2scc(-c3cccc(F)c3)c2ncn1Cc1cccc(Br)c1
885	COc1ccc(-c2noc(C3CC(=O)N(c4ccc(C)cc4)C3)n2)cc1OC (configuration not stated)
994	Cc1nc2cc(-c3noc(COc4ccc(F)cc4)n3)ccc2o1
660	COc1ccc(-c2nnc(-c3ccc(C)c(S(=O)(=O)NCc4cccnc4)c3)o2)cc1OC
720	COc1cc2nc(C(=O)N3CCCCC3)cc(Nc3ccc(F)c(F)c3)c2cc1OC

Structure (SMILES)	RP-LC retention time [s]
NC(=O)[C@H](Cc1ccccc1)NC(=O)[C@H](Cc1ccccc1)NC(=O)[C@@H]1CCCN1C(=O)[C@@H](N)Cc1ccc(O)cc1	678
